As usually defined, the IC50 is the concentration that inhibits the measured activity by half. A low value points to greater potency in that assay.

The target of one assay is T1, BIR2 domain of XIAP (Homo sapiens, UniProt P98170, C202A/C213G).
T1 construct: 6× Histidine-tagged BIR2 domain, corresponding to amino acids 124-240 of XIAP
In words: TR-FRET assay for BIR2 (inhibition of binding of XIAP BIR2 domain to SMAC-derived Peptide A). To be noted: 6x Histidine-tagged BIR2 domain (amino acids 124-240 of XIAP) 10 nM, Peptide A 20 nM. The protocol: (§1) TR-FRET Assay for BIR2 and BIR3
(§2) The ability of a test compound to inhibit the binding of BIR2 and/or BIR3 domains of the XIAP protein to Peptide A (a SMAC-derived peptide described below) evidences that the test compound acts as a SMAC-mimetic resulting in reactivation of a cell's apoptotic pathway.
(§3) The peptides were labeled with the fluorescent tags FITC or TAMRA and Kd values were determined by fluorescence polarization assay. […] The peptide sequence was derivatized with biotin to provide […]-(ε-biotin)-OH 1:2 TFA as the substrate for the TR-FRET assay.
The XIAP protein sequence was obtained from the SWISS-PROT protein sequence database and the BIR2 and BIR3 domains were derived from that. The sequence of the BIR2 domain used for the TR-FRET assay is […].
Time-resolved fluorescence resonance energy transfer (TR-FRET) signals were measured 1 hour later at room temperature. Test compound potency was assessed at 10 serially diluted concentrations. Percentage of inhibition at each concentration was determined to generate an IC50 value for each test compound.
(TR-FRET usually uses a lanthanide donor and a delayed reading to cut background.)

The next assay has as its target T2, BIR3 domain of XIAP (Homo sapiens, UniProt P98170).
T2 construct: BIR3 domain, corresponding to amino acids 241-356 of XIAP
The assay is described as follows: TR-FRET assay for BIR3 (inhibition of binding of XIAP BIR3 domain to SMAC-derived Peptide A). The note with it: 6x Histidine-tagged BIR3 domain (amino acids 241-356 of XIAP) 10 nM, Peptide A 20 nM. As to the method:
as §1, §2, §3
The sequence of the BIR3 domain used for the TR-FRET assay is […]
Ten nanomolar of 6× Histidine-tagged BIR2 domain, corresponding to amino acids 124-240 of XIAP, or BIR3 domain, corresponding to amino acids 241-356 of XIAP, was mixed with 20 nM of the peptide […]-(z-biotin)-OH 1:2 TFA, in the presence of 50 mM Tris-Cl, pH 7.5, 100 mM NaCl, 1 mM dithiothreitol (DTT) and 0.1 mg/mL bovine serum albumin (BSA). Following a […] incubation at 37° C., Europium-Streptavidin and Allophycocyanin conjugated anti-Histidine antibody were added to a final concentration of 1.5 nM and 15 nM, respectively. Time-resolved fluorescence resonance energy transfer (TR-FRET) signals were measured 1 hour later at room temperature. Test compound potency was assessed at 10 serially diluted concentrations. Percentage of inhibition at each concentration was determined to generate an IC50 value for each test compound.

T1 sequence (P98170 with tags, fused parts or gaps C202A/C213G): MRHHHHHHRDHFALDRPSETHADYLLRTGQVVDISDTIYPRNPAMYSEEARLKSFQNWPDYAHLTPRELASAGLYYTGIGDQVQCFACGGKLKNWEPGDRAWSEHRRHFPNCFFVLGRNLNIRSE
T2 sequence (P98170 with tags, fused parts or gaps): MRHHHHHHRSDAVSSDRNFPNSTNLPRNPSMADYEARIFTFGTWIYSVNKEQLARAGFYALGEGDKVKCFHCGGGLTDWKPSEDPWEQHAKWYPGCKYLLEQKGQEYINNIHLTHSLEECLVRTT

In the case of `CN[C@@H](C)C(=O)N[C@H](C(=O)N1c2ncccc2C[C@H]1C(=O)Nc1cccc(F)c1)C(C)C` [Example 39, (S)-1-[(S)-3-Methyl-2-((S)-2-methylamino-propionylamino)-butyryl]-2,3-dihydro-1H-pyrrolo[2,3-b]pyridine-2-carboxylic acid (3-fluoro-phenyl)-amide], the IC50 was 226 nM at BIR2 domain of XIAP and above 54800 nM at BIR3 domain of XIAP.

Regarding `CCc1ccccc1NC(=O)[C@@H]1Cc2cccnc2N1C(=O)[C@@H](NC(=O)[C@H](C)NC)C(C)C` [Example 40, (S)-1-[(S)-3-Methyl-2-((S)-2-methylamino-propionylamino)-butyryl]-2,3-dihydro-1H-pyrrolo[2,3-b]pyridine-2-carboxylic acid (2-ethyl-phenyl)-amide], the IC50 is 104 nM at BIR2 domain of XIAP and above 54800 nM at BIR3 domain of XIAP.

Consider `CN[C@@H](C)C(=O)N[C@H](C(=O)N1c2ncccc2C[C@H]1C(=O)Nc1ccc(C2CCNCC2)cc1)C(C)C` [Example 41, (S)-1-[(S)-3-Methyl-2-((S)-2-methylamino-propionylamino)-butyryl]-2,3-dihydro-1H-pyrrolo[2,3-b]pyridine-2-carboxylic acid (4-piperidin-4-yl-phenyl)-amide], for which the results for the IC50 at BIR2 domain of XIAP and at BIR3 domain of XIAP were 701 nM and above 54800 nM, respectively.

For `CN[C@@H](C)C(=O)N[C@H](C(=O)N1c2ncccc2C[C@H]1C(=O)Nc1ccc(C(=O)c2ccccc2)cc1)C(C)C` [Example 42, (S)-1-[(S)-3-Methyl-2-((S)-2-methylamino-propionylamino)-butyryl]-2,3-dihydro-1H-pyrrolo[2,3-b]pyridine-2-carboxylic acid (4-benzoyl-phenyl)-amide], the half-maximal inhibitory concentration (IC50) is 847 nM at BIR2 domain of XIAP and above 54800 nM at BIR3 domain of XIAP.

With `CN[C@@H](C)C(=O)N[C@H](C(=O)N1c2ncccc2C[C@H]1C(=O)Nc1cccc(C)c1C)C(C)C` [Example 43, (S)-1-[(S)-3-Methyl-2-((S)-2-methylamino-propionylamino)-butyryl]-2,3-dihydro-1H-pyrrolo[2,3-b]pyridine-2-carboxylic acid (2,3-dimethyl-phenyl)-amide], the 50% inhibitory concentration (IC50) was 71.1 nM on BIR2 domain of XIAP and above 54800 nM on BIR3 domain of XIAP.

`CN[C@@H](C)C(=O)N[C@H](C(=O)N1c2ncccc2C[C@H]1C(=O)Nc1cc(C)ccc1F)C(C)C` [Example 44, (S)-1-[(S)-3-Methyl-2-((S)-2-methylamino-propionylamino)-butyryl]-2,3-dihydro-1H-pyrrolo[2,3-b]pyridine-2-carboxylic acid (2-fluoro-5-methyl-phenyl)-amide]: the half-inhibitory concentration (IC50) at BIR2 domain of XIAP is 3.8 nM; at BIR3 domain of XIAP, above 54800 nM.

For the compound `CN[C@@H](C)C(=O)N[C@H](C(=O)N1c2ncccc2C[C@H]1C(=O)Nc1cc(C)cc(C)c1)C(C)C` [Example 45, (S)-1-[(S)-3-Methyl-2-((S)-2-methylamino-propionylamino)-butyryl]-2,3-dihydro-1H-pyrrolo[2,3-b]pyridine-2-carboxylic acid (3,5-dimethyl-phenyl)-amide], the half-maximal inhibitory concentration (IC50) was 304 nM on BIR2 domain of XIAP and above 54800 nM on BIR3 domain of XIAP.

`CN[C@@H](C)C(=O)N[C@H](C(=O)N1c2ncccc2C[C@H]1C(=O)Nc1ccc(C)cc1F)C(C)C` [Example 46, (S)-1-[(S)-3-Methyl-2-((S)-2-methylamino-propionylamino)-butyryl]-2,3-dihydro-1H-pyrrolo[2,3-b]pyridine-2-carboxylic acid (2-fluoro-4-methyl-phenyl)-amide]: the concentration for half-maximal inhibition (IC50) on BIR2 domain of XIAP was 4.04 nM; on BIR3 domain of XIAP, above 54800 nM.

In the case of `CN[C@@H](C)C(=O)N[C@H](C(=O)N1c2ncccc2C[C@H]1C(=O)Nc1ccc(OC)cc1F)C(C)C` [Example 47, (S)-1-[(S)-3-Methyl-2-((S)-2-methylamino-propionylamino)-butyryl]-2,3-dihydro-1H-pyrrolo[2,3-b]pyridine-2-carboxylic acid (2-fluoro-4-methoxy-phenyl)-amide], the IC50 on BIR2 domain of XIAP was 4.29 nM; on BIR3 domain of XIAP, above 54800 nM.
